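How tested: cells in 96-well plates exposed to compound for 48 hours at five concentrations. The concentration for 50% growth inhibition is given as GI50. TGI denotes the concentration required for complete inhibition of growth.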
How the values were obtained:
Assay in all cases: NCI tumour cell line growth inhibition, 48 h
NCI-H460 lung = system: NCI-H460 lung
K-562 leukemia = system: K-562 leukemia
HOP-62 NSCLC = system: HOP-62 NSCLC
MALME-3M melanoma = system: MALME-3M melanoma
HOP-92 NSCLC = system: HOP-92 NSCLC
DU-145 prostate = system: DU-145 prostate
LOX IMVI melanoma = system: LOX IMVI melanoma
HCT-116 colon = system: HCT-116 colon
COLO 205 colon = system: COLO 205 colon
SK-OV-3 ovarian = system: SK-OV-3 ovarian

Compound | GI50 (NCI-H460 lung) [µM] | TGI (NCI-H460 lung) [µM] | GI50 (K-562 leukemia) [µM] | TGI (K-562 leukemia) [µM] | GI50 (HOP-62 NSCLC) [µM] | TGI (HOP-62 NSCLC) [µM] | GI50 (MALME-3M melanoma) [µM] | TGI (MALME-3M melanoma) [µM] | GI50 (HOP-92 NSCLC) [µM] | TGI (HOP-92 NSCLC) [µM] | GI50 (DU-145 prostate) [µM] | TGI (DU-145 prostate) [µM] | GI50 (LOX IMVI melanoma) [µM] | TGI (LOX IMVI melanoma) [µM] | GI50 (HCT-116 colon) [µM] | TGI (HCT-116 colon) [µM] | GI50 (COLO 205 colon) [µM] | TGI (COLO 205 colon) [µM] | GI50 (SK-OV-3 ovarian) [µM] | TGI (SK-OV-3 ovarian) [µM]
CC(C)=CCC/C(C)=C/CC/C(C)=C/CSC[C@H](NC(=O)CCCCCN1CCN(C)CC1)C(=O)NC1CCCCCC1 | 1.93 | 3.69 | 2.24 | 5.14 | 4.42 | 19.3 | 1.94 | 3.56 | 2.3 | 8.39 | 1.93 | 3.52 | 1.76 | 3.29 | 1.71 | 3.16 | 1.85 | 3.63 | 5.16 | 17.1
COc1ccc(C2=NN(C(N)=S)C(c3ccc4c(c3)OCO4)C2)cc1 (stereo not drawn) | 2.6 | 6.83 | 2.89 | > 100 | 3.56 | > 100 | 3.62 | 43.9 | 2.12 | 8.05 | 1.94 | 4.56 | 2.19 | 4.99 | 2.96 | 22.9 | 3.39 | 11.5 | 2.35 | 6.12
CCC(=C(c1ccc(OCCN2CCCCC2)cc1)c1ccc(OCCN2CCCCC2)cc1)c1ccc(Cl)cc1 | 5.7 | > 16.7 | 0.4 | 1.07 | > 16.7 | > 16.7 | 2.72 | 5.21 | 1.57 | > 16.7 | > 16.7 | > 16.7 | 2.31 | 4.84 | 1.56 | > 16.7 | 3.59 | 9.01 | > 16.7 | > 16.7
N#CCCNc1nonc1-c1nc2ccccc2n1CC(=O)c1ccc(N)cc1 | 0.0317 | > 32.9 | < 0.01 | > 100 | 0.0432 | > 100 |  | > 100 | < 0.01 | 0.456 | 0.0288 | 0.0984 | 0.0326 | > 100 | 0.0285 |  | 0.022 | 0.0477 | 0.0189 | 0.0665

Reference: PubChem BioAssay (NCI)
